The values that follow come from patent US20120172359A1 (NOVARTIS AG, priority 2010, published 2012).

The target of experiment [1] is Human BACE-1 (Homo sapiens, UniProt P56817). Description: Test 1: Inhibition of Human BACE-1. Format: biochemical. The settings on record: Test 1; recombinant BACE-1 (extracellular domain), acetate buffer pH 4.5, 1 hour with test compound at room temperature, fluorescence-quenched peptide substrate; read-out: Bace IC50.
Experiment [2] has as its system cellular release of amyloid peptide 1-40. Description: Test 4: Inhibition of Cellular Release of Amyloid Peptide 1-40. It counts as cell-based. The settings on record: Cricetulus griseus, Chinese hamster ovary cells transfected with the gene for amyloid precursor protein, 24 hours with test compound, amyloid peptide 1-40 in supernatant, read-out: Bace IC50. The procedure: Test 4: Inhibition of Cellular Release of Amyloid Peptide 1-40
Chinese hamster ovary cells are transfected with the gene for amyloid precursor protein. The cells are plated at a density of 8000 cells/well into 96-well microtiter plates and cultivated for 24 hours in DMEM cell culture medium containing 10% FCS. The test compound is added to the cells at various concentrations, and the cells are cultivated for 24 hours in the presence of the test compound. The supernatants are collected, and the concentration of amyloid peptide 1-40 is determined using state of the art immunoassay techniques, for example sandwich ELISA, homogenous time-resolved fluorescence (HTRF) immunoassay, or electro-chemiluminescence immunoassay.

For orientation: IC50 means the midpoint of a concentration-inhibition curve.

Where a name gives a salt, the structure may show the parent alone.

Chain of Human BACE-1 (P56817 46-457 limits assumed): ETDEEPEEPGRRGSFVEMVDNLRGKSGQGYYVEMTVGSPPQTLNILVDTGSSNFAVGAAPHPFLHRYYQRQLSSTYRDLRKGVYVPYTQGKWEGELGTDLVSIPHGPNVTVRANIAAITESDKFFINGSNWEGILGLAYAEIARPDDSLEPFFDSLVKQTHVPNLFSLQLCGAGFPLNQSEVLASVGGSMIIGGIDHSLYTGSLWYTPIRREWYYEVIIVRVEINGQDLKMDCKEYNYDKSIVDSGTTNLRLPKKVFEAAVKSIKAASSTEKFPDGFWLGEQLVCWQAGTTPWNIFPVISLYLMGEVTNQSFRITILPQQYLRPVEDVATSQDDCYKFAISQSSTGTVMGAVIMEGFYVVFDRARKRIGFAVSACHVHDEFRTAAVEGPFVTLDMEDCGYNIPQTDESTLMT

In the case of `Cl.[2H]c1nc(C(=O)Nc2ccc(F)c([C@]3(C(F)F)COCC(N)=N3)c2)c(C([2H])([2H])[2H])c([2H])c1Br` [Example 116, 5-Bromo-4,6-dideutero-3-trideuteromethyl-pyridine-2-carboxylic acid [3-((R)-5-amino-3-difluoromethyl-3,6-dihydro-2H-[1,4]oxazin-3-yl)-4-fluoro-phenyl]-amide hydrochloride], the IC50 in experiment [1] was 18 nM; in experiment [2] it was 4 nM.
The corresponding values for `NC1=N[C@@](c2cc(NC(=O)c3cn4ccccc4n3)ccc2F)(C(F)F)COC1` [Example 129, Imidazo[1,2-a]pyridine-2-carboxylic acid [3-((R)-5-amino-3-difluoromethyl-3,6-dihydro-2H-[1,4]oxazin-3-yl)-4-fluoro-phenyl]-amide hydrochloride] are 2200 nM and 1200 nM.
In the same order, the values of `Cc1cc(C#N)cnc1C(=O)Nc1ccc(F)c([C@]2(C(F)F)COCC(N)=N2)c1` [Example 144, 5-Cyano-3-methyl-pyridine-2-carboxylic acid [3-((R)-5-amino-3-difluoromethyl-3,6-dihydro-2H-[1,4]oxazin-3-yl)-4-fluoro-phenyl]-amide] are 17 nM and 6 nM.
On to `[2H]c1nc(C(=O)Nc2ccc(F)c([C@]3(C(F)F)COCC(N)=N3)c2)c(C([2H])([2H])[2H])c([2H])c1C#N` [Example 147, 5-Cyano-4,6-dideutero-3-trideuteromethyl-pyridine-2-carboxylic acid [3-((R)-5-amino-3-difluoromethyl-3,6-diydro-2H-[1,4]oxazin-3-yl)-4-fluoro-phenyl]-amide], for which the figures for the IC50 in experiment [1] and in experiment [2] were 79 nM and 8 nM, respectively.
In the case of `CC#CCOc1cnc(C(=O)Nc2ccc(F)c([C@]3(C(F)F)COCC(N)=N3)c2)cn1` [Example 164, 5-But-2-ynyloxy-pyrazine-2-carboxylic acid [3-((R)-5-amino-3-difluoromethyl-3,6-dihydro-2H-[1,4]oxazin-3-yl)-4-fluoro-phenyl]-amide], the half-inhibitory concentration (IC50) in experiment [1] and in experiment [2] was 1 nM each time.
For the compound `COc1cnc(C(=O)Nc2ccc(F)c([C@]3(C(F)F)COCC(N)=N3)c2)c(N)n1` [Example 175, 3-Amino-5-methoxy-pyrazine-2-carboxylic acid [3-((R)-5-amino-3-difluoromethyl-3,6-dihydro-2H-[1,4]oxazin-3-yl)-4-fluoro-phenyl]-amide], the half-inhibitory concentration (IC50) in experiment [1] is 16 nM; in experiment [2], 4 nM.
